tested on: NLRP3 inflammasome (IL-1β production in THP-1 cells); assay: IL-1β TR-FRET Assay (percentage of inhibition at 300 nM, 6 μM or 10 μM); type: cell-based, human; conditions: Homo sapiens, THP-1, 300 nM, LPS priming, ATP activation, read-out: IL-1β inhibitory rate at 300 nM (%)
Procedure: The biological activity of the compound of Formula 1 with respect to NLRP3 was determined using the following in vitro method.
IL-1β TR-FRET Assay (reported as percentage of inhibition at 300 nM, 6 μM or 10 μM)
Monocytic THP-1 cells (ATCC: TIB-202) were maintained in accordance with the provider's instructions in RPMI media (Life Technologies, Cat #A10491-01); RPMI was supplemented with 10% heat inactivated fetal bovine serum (Corning, Cat #35-010-CV). The cells were differentiated into macrophages by the addition of 25 ng/mL IFN-γ (PeproTech, Cat #AF-300-02-100UG) for 24 hours at 37° C./5% CO2. Media was exchanged with fresh media with no FBS, and the cells were treated with 50 ng/mL LPS (priming step) (LPS-EK: Invivogen, Cat #tlrl-peklps). The cells were plated at 20,000 cells per well in 384-well flat-bottom cell culture plates (FALCON, Cat #353962) and were incubated for 24 hours at 37° C./5% CO2. Compounds were serially diluted (half log or 5-fold dilutions) with DMSO and were finally diluted with Media with no FBS. The compounds were added to the cells in 384-well plates (added in 1:3) and then the plates were incubated for 30 minutes at 37° C./5% CO2. The NLRP3 inflammasome was activated with the addition of 20 mM ATP (Sigma Cat #A3377-25G) and the cells were incubated for 2 hours at 37° C./5% CO2. At the end of the incubation period, 30 μL supernatant was transferred to another 384-well plate and mixed on a plate shaker for 1 minute. The supernatant was mixed with HTRF Antibody (Human IL1 beta kit, Cisbio, 62HIL1BPEH) in assay plates (Greiner Bio-One, Cat #784075) and the assay plates were incubated in shading box at room temperature for 16-24 hours. HTRF signal was measured by EnVision (Perkinelmer) in accordance with the manufacturer's instructions.
The percentage of inhibition at 300 nM, 6 μM or 10 μM in the IL-1βTR-FRET assay was calculated by the following formula: Percentage of inhibition=[1−(HTRF signaltest−HTRF signalLow)/(HTRF signalHigh−HTRF signalLow)]*100, where HTRF signaltest is the HTRF signal in the well to which test compound is added, HTRF signalLow is the HTRF signal in the well to which 3 μM MCC-950 is added, and the HTRF signalHigh is the HTRF signal in the well to which DMSO is added.

`COc1nc2nn(-c3c(OC)cc(C4CC4)cc3C(F)F)cc2c(=O)[nH]1` [Example 169, 2-[4-cyclopropyl-2-(difluoromethyl)-6-methoxyphenyl]-6-methoxy-2,5-dihydro-4H-pyrazolo[3,4-d]pyrimidin-4-one] and `COc1nc2nn(-c3c(C)cc(C4CC4)cc3C(F)F)cc2c(=O)[nH]1` [Example 209, 2-[4-cyclopropyl-2-(difluoromethyl)-6-methylphenyl]-6-methoxy-2,5-dihydro-4H-pyrazolo[3,4-d]pyrimidin-4-one] are the same in inhibition at 0.3 µM: 103% for the first, 103% for the second.

First: Cc1ccc(-n2cc3c(=O)[nH]c(OCC(F)F)nc3n2)c(C)c1 [Example 220, 6-(2,2-difluoroethoxy)-2-(2,4-dimethylphenyl)-2,5-dihydro-4H-pyrazolo [3,4-d]pyrimidin-4-one]
Second: CCOc1nc2nn(-c3c(C)cc(C)cc3F)cc2c(=O)[nH]1 [Example 78, 6-ethoxy-2-(2-fluoro-4,6-dimethylphenyl)-2,5-dihydro-4H-pyrazolo[3,4-d]pyrimidin-4-one]
The inhibition at 0.3 µM of the first is lower: 71% for the first, 98% for the second.

Going from `Cc1nc2nn(-c3c(C)cc(C4CC4)cc3C)cc2c(=O)[nH]1` [Example 180, 2-(4-cyclopropyl-2,6-dimethylphenyl)-6-methyl-2,5-dihydro-4H-pyrazolo[3,4-d]pyrimidin-4-one] to `Cc1cc(C2CC2)cc(C)c1-n1cc2c(=O)[nH]c(CC(C)(C)O)nc2n1` [Example 181, 2-(4-cyclopropyl-2,6-dimethylphenyl)-6-(2-hydroxy-2-methylpropyl)-2,5-dihydro-4H-pyrazolo[3,4-d]pyrimidin-4-one], the inhibition at 0.3 µM rises from 99% to 103%.

Compared with `CCOc1nc2nn(-c3c(F)cc(C4CC4)cc3C(O)C(F)F)cc2c(=O)[nH]1` (racemic) [Example 177, 2-[4-cyclopropyl-2-(2,2-difluoro-1-hydroxyethyl)-6-fluorophenyl]-6-ethoxy-2,5-dihydro-4H-pyrazolo[3,4-d]pyrimidin-4-one], `CCOc1nc2nn(-c3c(F)cc(OC)cc3C(F)F)cc2c(=O)[nH]1` [Example 149, 2-[2-(difluoromethyl)-6-fluoro-4-methoxyphenyl]-6-ethoxy-2,5-dihydro-4H-pyrazolo[3,4-d]pyrimidin-4-one] is lower in inhibition at 0.3 µM: 108% for the first, 99% for the second.

`CCOc1nc2nn(-c3c(C)cc(Br)cc3OC(F)F)cc2c(=O)[nH]1` [Example 221, 2-[4-bromo-2-(difluoromethoxy)-6-methylphenyl]-6-ethoxy-2,5-dihydro-4H-pyrazolo[3,4-d]pyrimidin-4-one] and `Cc1cc(Br)cc(C)c1-n1cc2c(=O)[nH]c(C3(F)CC3)nc2n1` [Example 188, 2-(4-bromo-2,6-dimethylphenyl)-6-(1-fluorocyclopropyl)-2,5-dihydro-4H-pyrazolo[3,4-d]pyrimidin-4-one] are the same in inhibition at 0.3 µM: 99% for the first, 99% for the second.

Compared with `CCOc1nc2nn(-c3ccc(C4(F)CC4)cc3F)cc2c(=O)[nH]1` [Example 183, 6-ethoxy-2-[2-fluoro-4-(1-fluorocyclopropyl)phenyl]-2,5-dihydro-4H-pyrazolo[3,4-d]pyrimidin-4-one], `CCCc1ccc(-n2nc3nc(OCC)[nH]c(=O)c3c2C)c(O)c1` [Example 80, 6-ethoxy-2-(2-hydroxy-4-propylphenyl)-3-methyl-2,5-dihydro-4H-pyrazolo[3,4-d]pyrimidin-4-one] is higher in inhibition at 0.3 µM: 96% for the first, 99% for the second.

First: Cc1cc(C2CC2)cc(C)c1-n1cc2c(=O)[nH]c(C3COCCO3)nc2n1 (racemic) [Example 232, 2-(4-cyclopropyl-2,6-dimethylphenyl)-6-(1,4-dioxan-2-yl)-2,5-dihydro-4H-pyrazolo[3,4-d]pyrimidin-4-one]
Second: Cc1cc(C2CC2)cc(C)c1-n1cc2c(=O)[nH]c(COCC(F)F)nc2n1 [Example 212, 2-(4-cyclopropyl-2,6-dimethylphenyl)-6-[(2,2-difluoroethoxy)methyl]-2,5-dihydro-4H-pyrazolo[3,4-d]pyrimidin-4-one]
The inhibition at 0.3 µM of the first is lower: 97% for the first, 103% for the second.

same assay, conditions: Homo sapiens, THP-1, 6 μM, LPS priming, ATP activation, read-out: IL-1β inhibitory rate at 6 μM (%)

Compared with `Cc1cc(C2CC2)cc(C)c1-n1cc2c(=O)[nH]c(COC3COC3)nc2n1` [Example 236, 2-(4-cyclopropyl-2,6-dimethylphenyl)-6-{[(oxetan-3-yl)oxy]methyl}-2,5-dihydro-4H-pyrazolo[3,4-d]pyrimidin-4-one], `Cc1cc(C2CC2)cc(C)c1-n1cc2c(=O)[nH]c(CO)nc2n1` [Example 304, 2-(4-cyclopropyl-2,6-dimethylphenyl)-6-(hydroxymethyl)-2,5-dihydro-4H-pyrazolo[3,4-d]pyrimidin-4-one] is higher in inhibition at 6 µM: 93% for the first, 103% for the second.

First: COCc1nc2nn(-c3c(C(F)F)cc(C4CC4)c(C4CC4)c3C)cc2c(=O)[nH]1 [Example 320, 2-[3,4-dicyclopropyl-6-(difluoromethyl)-2-methylphenyl)-6-(methoxymethyl)-2,5-dihydro-4H-pyrazolo[3,4-d]pyrimidin-4-one]
Second: O=c1[nH]c(COC(F)F)nc2nn(-c3ccc(C4CC4)cc3C(F)F)cc12 [Example 271, 2-[4-cyclopropyl-2-(difluoromethyl)phenyl]-6-[(difluoromethoxy)methyl]-2,5-dihydro-4H-pyrazolo[3,4-d]pyrimidin-4-one]
The inhibition at 6 µM of the first is lower: 94% for the first, 102% for the second.

First: Cc1cc(C2CC2)cc(C)c1-n1cc2c(=O)[nH]c(-c3ncc(C(F)(F)F)[nH]3)nc2n1 [Example 242, 2-(4-cyclopropyl-2,6-dimethylphenyl)-6-[5-(trifluoromethyl)-1H-imidazol-2-yl]-2,5-dihydro-4H-pyrazolo[3,4-d]pyrimidin-4-one]
Second: Cc1cc(C2CC2)cc(C)c1-n1cc2c(=O)[nH]c(C3(F)CCOCC3)nc2n1 [Example 238, 2-(4-cyclopropyl-2,6-dimethylphenyl)-6-(4-fluorooxan-4-yl)-2,5-dihydro-4H-pyrazolo[3,4-d]pyrimidin-4-one]
The inhibition at 6 µM of the first is higher: 104% for the first, 97% for the second.

Compared with `CCOc1nc2nn(-c3c(Br)cc(Br)cc3C(F)F)cc2c(=O)[nH]1` [Example 251, 2-[2,4-dibromo-6-(difluoromethyl)phenyl]-6-ethoxy-2,5-dihydro-4H-pyrazolo[3,4-d]pyrimidin-4-one], `COc1nc2nn(-c3c(F)cc(C4CC4)cc3CC(F)F)cc2c(=O)[nH]1` [Example 309, 2-[4-cyclopropyl-2-(2,2-difluoroethyl)-6-fluorophenyl]-6-methoxy-2,5-dihydro-4H-pyrazolo [3,4-d]pyrimidin-4-one] is lower in inhibition at 6 µM: 105% for the first, 99% for the second.

Compared with `Cc1cc(C2(F)CC2)cc(C)c1-n1cc2c(=O)[nH]c(-c3ccn(C)n3)nc2n1` [Example 292, 2-[4-(1-fluorocyclopropyl)-2,6-dimethylphenyl]-6-(1-methyl-1H-pyrazol-3-yl)-2,5-dihydro-4H-pyrazolo[3,4-d]pyrimidin-4-one], `Cc1cc(C2CC2)cc(C)c1-n1cc2c(=O)[nH]c(CN3CCCO3)nc2n1` [Example 237, 2-(4-cyclopropyl-2,6-dimethylphenyl)-6-[(1,2-oxazolidin-2-yl)methyl]-2,5-dihydro-4H-pyrazolo[3,4-d]pyrimidin-4-one] is lower in inhibition at 6 µM: 101% for the first, 98% for the second.

`O=c1[nH]c(COC(F)F)nc2nn(-c3ccc([N+](=O)[O-])cc3C(F)F)cc12` [Example 256, 6-[(difluoromethoxy)methyl]-2-[2-(difluoromethyl)-4-nitrophenyl]-2,5-dihydro-4H-pyrazolo [3,4-d]pyrimidin-4-one] showed an inhibition at 6 µM of 89%.

From patent publication US20260297092A1, “PYRAZOLOPYRIMIDINE DERIVATIVES AS INHIBITORS OF NLRP3” (Takeda Pharmaceutical Company Limited, priority 2023, published 2026)
